From US8192962B2, “Processes for detecting toxic substances” (Daikin Industries, Ltd., priority 2001, dated 2012)

Test system: Transport facilitation protein genes
Experiment: DNA chip mRNA expression in yeast, transport facilitation protein genes (Table 5)
Type: cell-based, Saccharomyces cerevisiae S288C
How it was run: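 Chemical exposure: 2 h, log-phase S. cerevisiae S288C, YPD, 25° C., dose set to inhibit growth without death. Profiling: mRNA labeled by reverse transcription with Cy3- or Cy5-dUTP, hybridized to whole-genome array. Output: fluorescence ratio against untreated culture.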

CN(C)C(=S)SSC(=S)N(C)C [(10), Tetramethylthiuram disulfide]
The level of expressed mRNA in the presence of chemical substance/The level of expressed mRNA in the absence of chemical substance (yeast gene YBL030C): 0.9
The level of expressed mRNA in the presence of chemical substance/The level of expressed mRNA in the absence of chemical substance (yeast gene YBL099W): 0.7
The level of expressed mRNA in the presence of chemical substance/The level of expressed mRNA in the absence of chemical substance (yeast gene YBR052C): 2.5
The level of expressed mRNA in the presence of chemical substance/The level of expressed mRNA in the absence of chemical substance (yeast gene YBR068C): 2.5
The level of expressed mRNA in the presence of chemical substance/The level of expressed mRNA in the absence of chemical substance (yeast gene YBR127C): 1.3
The level of expressed mRNA in the presence of chemical substance/The level of expressed mRNA in the absence of chemical substance (yeast gene YBR132C): 1.1
The level of expressed mRNA in the presence of chemical substance/The level of expressed mRNA in the absence of chemical substance (yeast gene YBR207W): 2.2
The level of expressed mRNA in the presence of chemical substance/The level of expressed mRNA in the absence of chemical substance (yeast gene YBR293W): 2.4
The level of expressed mRNA in the presence of chemical substance/The level of expressed mRNA in the absence of chemical substance (yeast gene YBR294W): 5.2
The level of expressed mRNA in the presence of chemical substance/The level of expressed mRNA in the absence of chemical substance (yeast gene YBR295W): 3.3
The level of expressed mRNA in the presence of chemical substance/The level of expressed mRNA in the absence of chemical substance (yeast gene YBR298C): 1.1
The level of expressed mRNA in the presence of chemical substance/The level of expressed mRNA in the absence of chemical substance (yeast gene YCL025C): 0.3
The level of expressed mRNA in the presence of chemical substance/The level of expressed mRNA in the absence of chemical substance (yeast gene YCL038C): 0.9
The level of expressed mRNA in the presence of chemical substance/The level of expressed mRNA in the absence of chemical substance (yeast gene YCR024C-A): 0.7
The level of expressed mRNA in the presence of chemical substance/The level of expressed mRNA in the absence of chemical substance (yeast gene YCR037C): 0.6
The level of expressed mRNA in the presence of chemical substance/The level of expressed mRNA in the absence of chemical substance (yeast gene YCR098C): 2.4
The level of expressed mRNA in the presence of chemical substance/The level of expressed mRNA in the absence of chemical substance (yeast gene YDL128W): 0.7
The level of expressed mRNA in the presence of chemical substance/The level of expressed mRNA in the absence of chemical substance (yeast gene YDL198C): 2.7
The level of expressed mRNA in the presence of chemical substance/The level of expressed mRNA in the absence of chemical substance (yeast gene YDL206W): 1.5
The level of expressed mRNA in the presence of chemical substance/The level of expressed mRNA in the absence of chemical substance (yeast gene YDL210W): 1.4
The level of expressed mRNA in the presence of chemical substance/The level of expressed mRNA in the absence of chemical substance (yeast gene YDL245C): 2.8
The level of expressed mRNA in the presence of chemical substance/The level of expressed mRNA in the absence of chemical substance (yeast gene YDR038C): 0.9
The level of expressed mRNA in the presence of chemical substance/The level of expressed mRNA in the absence of chemical substance (yeast gene YDR039C): 1.0
The level of expressed mRNA in the presence of chemical substance/The level of expressed mRNA in the absence of chemical substance (yeast gene YDR086C): 0.8
The level of expressed mRNA in the presence of chemical substance/The level of expressed mRNA in the absence of chemical substance (yeast gene YDR270W): 3.6
The level of expressed mRNA in the presence of chemical substance/The level of expressed mRNA in the absence of chemical substance (yeast gene YDR298C): 1.6
The level of expressed mRNA in the presence of chemical substance/The level of expressed mRNA in the absence of chemical substance (yeast gene YDR342C): 2.2
The level of expressed mRNA in the presence of chemical substance/The level of expressed mRNA in the absence of chemical substance (yeast gene YDR343C): 2.1
The level of expressed mRNA in the presence of chemical substance/The level of expressed mRNA in the absence of chemical substance (yeast gene YDR345C): 1.1
The level of expressed mRNA in the presence of chemical substance/The level of expressed mRNA in the absence of chemical substance (yeast gene YDR387C): 2.0
The level of expressed mRNA in the presence of chemical substance/The level of expressed mRNA in the absence of chemical substance (yeast gene YDR497C): 0.8
The level of expressed mRNA in the presence of chemical substance/The level of expressed mRNA in the absence of chemical substance (yeast gene YEL027W): 1.1
The level of expressed mRNA in the presence of chemical substance/The level of expressed mRNA in the absence of chemical substance (yeast gene YEL063C): 1.7
The level of expressed mRNA in the presence of chemical substance/The level of expressed mRNA in the absence of chemical substance (yeast gene YEL065W): 4.9
The level of expressed mRNA in the presence of chemical substance/The level of expressed mRNA in the absence of chemical substance (yeast gene YER053C): 3.9
The level of expressed mRNA in the presence of chemical substance/The level of expressed mRNA in the absence of chemical substance (yeast gene YER119C): 1.2
The level of expressed mRNA in the presence of chemical substance/The level of expressed mRNA in the absence of chemical substance (yeast gene YFL011W): 1.6
The level of expressed mRNA in the presence of chemical substance/The level of expressed mRNA in the absence of chemical substance (yeast gene YFL041W): 5.1
The level of expressed mRNA in the presence of chemical substance/The level of expressed mRNA in the absence of chemical substance (yeast gene YFL050C): 1.6
The level of expressed mRNA in the presence of chemical substance/The level of expressed mRNA in the absence of chemical substance (yeast gene YFL054C): 2.3
The level of expressed mRNA in the presence of chemical substance/The level of expressed mRNA in the absence of chemical substance (yeast gene YFL055W): 6.5
The level of expressed mRNA in the presence of chemical substance/The level of expressed mRNA in the absence of chemical substance (yeast gene YGL006W): 1.2
The level of expressed mRNA in the presence of chemical substance/The level of expressed mRNA in the absence of chemical substance (yeast gene YGL008C): 0.4
The level of expressed mRNA in the presence of chemical substance/The level of expressed mRNA in the absence of chemical substance (yeast gene YGL104C): 2.1
The level of expressed mRNA in the presence of chemical substance/The level of expressed mRNA in the absence of chemical substance (yeast gene YGL167C): 1.1
The level of expressed mRNA in the presence of chemical substance/The level of expressed mRNA in the absence of chemical substance (yeast gene YGL255W): 5.0
The level of expressed mRNA in the presence of chemical substance/The level of expressed mRNA in the absence of chemical substance (yeast gene YGR055W): 2.4
The level of expressed mRNA in the presence of chemical substance/The level of expressed mRNA in the absence of chemical substance (yeast gene YGR065C): 2.6
The level of expressed mRNA in the presence of chemical substance/The level of expressed mRNA in the absence of chemical substance (yeast gene YGR082W): 0.9
The level of expressed mRNA in the presence of chemical substance/The level of expressed mRNA in the absence of chemical substance (yeast gene YGR096W): 0.8
The level of expressed mRNA in the presence of chemical substance/The level of expressed mRNA in the absence of chemical substance (yeast gene YGR138C): 1.0
The level of expressed mRNA in the presence of chemical substance/The level of expressed mRNA in the absence of chemical substance (yeast gene YGR191W): 0.7
The level of expressed mRNA in the presence of chemical substance/The level of expressed mRNA in the absence of chemical substance (yeast gene YGR197C): 3.2
The level of expressed mRNA in the presence of chemical substance/The level of expressed mRNA in the absence of chemical substance (yeast gene YGR224W): 0.9
The level of expressed mRNA in the presence of chemical substance/The level of expressed mRNA in the absence of chemical substance (yeast gene YGR260W): 0.4
